According to US5336763A, “Trisazo dye and dye composition containing the same” (Orient Chemical Industries, Ltd., priority 1992, dated 1994):
Where two headings read alike, the source gives them in different places.

Tested on: strains TA98
Type: cell-based
Conditions: for AMES evaluation: strains TA98
Protocol: Regarding various specimen solutions respectively containing trisazo dyes obtained in Examples 1 to 11 to the present invention and dyes of Comparative Examples 1 to 3, the number of mutant colonies was determined using strains TA98. 2. When the ratio is less than 2, it is "negative" and, when the ratio is more than 2, it is "positive", and the results are shown in Table. 1.

Row | Structure (SMILES) | Ames test: ratio of number of colonies to control (20 μg/plate, with S-9) | Ames test: ratio of number of colonies to control (20 μg/plate, without S-9) | Ames test: ratio of number of colonies to control (78 μg/plate, with S-9) | Ames test: ratio of number of colonies to control (78 μg/plate, without S-9) | Ames test: ratio of number of colonies to control (313 μg/plate, with S-9) | Ames test: ratio of number of colonies to control (313 μg/plate, without S-9) | Ames test: ratio of number of colonies to control (1250 μg/plate, with S-9) | Ames test: ratio of number of colonies to control (1250 μg/plate, without S-9) | Ames test: ratio of number of colonies to control (5000 μg/plate, with S-9) | Ames test: ratio of number of colonies to control (5000 μg/plate, without S-9) | AMES evaluation
1 | Nc1ccc(N=Nc2ccc(Oc3cccc(Oc4ccc(N=Nc5c(S(=O)(=O)O)cc6cc(S(=O)(=O)O)c(N=Nc7ccccc7)c(O)c6c5N)cc4)c3)cc2)c(O)c1 [Ex. 1] | 1.13 | 0.76 | 0.94 | 0.86 | 1.06 | 0.86 | 0.53 | 0.76 | 0.59 | 0.71 | Negative (When the ratio is less than 2, it is "negative")
2 | Nc1c(N=Nc2ccc(Oc3cccc(Oc4ccc(N=Nc5ccc(O)cc5O)cc4)c3)cc2)c(S(=O)(=O)O)cc2cc(S(=O)(=O)O)c(N=Nc3ccccc3)c(O)c12 [Ex. 2] | 1.34 | 1.07 | 1.19 | 1.20 | 1.39 | 1.02 | 1.28 | 1.16 | 1.27 | 1.28 | Negative (When the ratio is less than 2, it is "negative")
3 | CCC(C)c1ccc(N=Nc2c(S(=O)(=O)O)cc3cc(S(=O)(=O)O)c(N=Nc4ccc(Oc5cccc(Oc6ccc(N=Nc7ccc(O)cc7O)cc6)c5)cc4)c(N)c3c2O)cc1 (stereo not drawn) [Ex. 3] | 1.32 | 0.76 | 1.79 | 0.86 | 1.59 | 0.86 | 0.76 | 1.10 | 0.56 | 0.95 | Negative (When the ratio is less than 2, it is "negative")
4 | Nc1ccc(N=Nc2ccc(Oc3ccc(Oc4ccc(N=Nc5c(S(=O)(=O)O)cc6cc(S(=O)(=O)O)c(N=Nc7ccccc7)c(O)c6c5N)cc4)cc3)cc2)c(O)c1 [Ex. 4] | 1.04 | 0.88 | 1.23 | 0.79 | 0.99 | 0.96 | 0.88 | 1.15 | 0.90 | 0.92 | Negative (When the ratio is less than 2, it is "negative")
5 | Nc1c(N=Nc2ccc(Oc3ccc(Oc4ccc(N=Nc5ccc(O)cc5O)cc4)cc3)cc2)c(S(=O)(=O)O)cc2cc(S(=O)(=O)O)c(N=Nc3ccccc3)c(O)c12 [Ex. 5] | 0.93 | 0.89 | 1.04 | 0.95 | 0.86 | 0.63 | 1.04 | 0.79 | 0.57 | 0.68 | Negative (When the ratio is less than 2, it is "negative")
6 | CCC(C)c1ccc(N=Nc2c(S(=O)(=O)O)cc3cc(S(=O)(=O)O)c(N=Nc4ccc(Oc5ccc(Oc6ccc(N=Nc7ccc(O)cc7O)cc6)cc5)cc4)c(N)c3c2O)cc1 (stereo not drawn) [Ex. 6] | 1.01 | 1.01 | 1.00 | 1.04 | 0.98 | 1.16 | 0.84 | 0.97 | 0.84 | 0.91 | Negative (When the ratio is less than 2, it is "negative")
